Literature values in US9237750B2, “Ornidazole and related compounds for use as herbicides” (RAMOT AT TEL-AVIV UNIVERSITY LTD., priority 2012, dated 2016).

Tested on: ferredoxin-linked NADP+ reduction
Conditions: photosystem II non-operative, ascorbate as electron source, broken spinach chloroplasts, DCPIP; cited from earlier work

## Cc1ncc([N+](=O)[O-])n1CCO [Metronidazole, 1-β-hydroxyethyl-2-methyl-5-nitroimidazole]
  inhibition of ferredoxin-linked NADP+ reduction: potent inhibitor
